# pKd: −log10 of the molar value. Entries after “also recorded” stand apart in the source; their conditions may differ. Where no end group is shown, it is not given here.
# Experiments:
# mAb 334 = experiment: Western blot of peptide-IChBD fusion proteins probed with mAb 334; assay type: binding, rat; conditions: Table 1, Western blot of FIG. 5, Torpedo 39MIR single mutants
# Description: (§1) Chitin beads adsorbed with peptide-IChBD fusion proteins were run on an SDS-PAGE gel and transferred to a nitrocellulose membrane and assayed with the five mAbs.
# (§2) To explore the effects of individual amino acid substitutions between the Torpedo and the human AChR MIR mimics, eight peptides were prepared, each with an amino acid substituted from the human sequence into the Torpedo sequence. The single amino acid substitutions in the Torpedo MIR were: N10K (SEQ ID NO:11), L12F (SEQ ID NO:12), R66K (SEQ ID NO:13), A70D (SEQ ID NO:14), I75V (SEQ ID NO:15), R79H (SEQ ID NO:16), D111Q (SEQ ID NO:17), and K115H (SEQ ID NO:18).
# mAb 132A [1] = experiment: Western blot of peptide-IChBD fusion proteins probed with mAb 132A; assay type: binding, rat; conditions: Table 1, Western blot of FIG. 5, Torpedo 39MIR single mutants
# Description: (§3) Chitin beads adsorbed with peptide-IChBD fusion proteins were run on an SDS-PAGE gel and transferred to a nitrocellulose membrane and assayed with the four mAbs.
# as §1, §2
# mAb 35 [2] = experiment: Western blot of peptide-IChBD fusion proteins probed with mAb 35; assay type: binding, rat
# mAb 198 [3] = experiment: Western blot of peptide-IChBD fusion proteins probed with mAb 198; assay type: binding, rat
# Source text: as §3, §1
# The Torpedo (SEQ ID NO:9) and human (SEQ ID NO:8) 39MIRs were made by joining the α(1-12), α(65-79), and α(110-115) segments of their respective a subunits with GS linkers. These two MIR mimics were expressed in E. coli as fusion proteins with an IChBD tag to permit peptide collection on chitin beads. These two peptides differ from each other by eight amino acids (FIG. 2). Both mimics were probed with mAb 198. mAb 198, which was derived from rats that had been immunized with human muscle AChR, is a MIR-directed mAb that binds mammalian as well as Torpedo MIR (13,21). It was also able to passively transfer EAMG to rats and binds to both native assembled AChR and to α-subunit fragments in Western blots (22,23). mAb 198 binds to the Torpedo and human MIR peptide mimics in Western blots (FIG. 3). However, mAb 198 binds to the Torpedo mimic about 50 times more strongly than to the human MIR mimic (FIG. 3).
# as §2
# [4] = test system: antibodies in human MG serum samples; experiment: Dot blot of His-tagged peptides against human MG serum samples; assay type: binding; conditions: FIG. 11
# Source text: Sample were obtained from either normal subjects (i.e., without a diagnosis of myasthenia gravis (MG)) or subjects diagnosed with MG. Samples were contacted with the Torpedo 39MIR peptide (SEQ ID NO:9), the human 39MIR peptide (SEQ ID NO:8), the K10N/V75I/[…] human 39MIR triple mutant (SEQ ID NO:26), or the K10N/D70A/V75I/Q111D human 39MIR quadruple mutant (SEQ ID NO:27).
# His-tagged variants of the Torpedo 39MIR, human 39MIR, […] triple mutant, and K10N/D70A/V75I/Q111D quadruple mutant peptides were expressed and probed for binding to antibodies in human MG serum samples. The peptides were dot-blotted onto a membrane and probed for binding to antibodies in our human MG serum library. […] None of the His-tagged peptides bound any antibodies in normal human serum samples (FIG. 11). Although the triple mutant peptide (SEQ ID NO:26) bound better overall to mAb 35, mAb 132A, and mAb 198, the quadruple mutant peptide (SEQ ID NO:27) was better for binding antibodies in MG sera.
# mAb 132A [5] = conditions: IChBD fusion; reference 14; read-out: Kd of complex with mAb 132A; cited from earlier work
# [6] = test system: MIR directed Abs in EAMG sera; conditions: reference 14; cited from earlier work
# mAb 132A [7] = experiment: Western blot of peptide-IChBD fusion proteins probed with mAb 132A; assay type: binding, rat
# mAb 35 [8] = experiment: Western blot of peptide-IChBD fusion proteins probed with mAb 35; assay type: binding, rat; conditions: Table 1, Western blot of FIG. 5, Torpedo 39MIR single mutants
# Description: as §3, §1, §2
# mAb 198 [9] = experiment: Western blot of peptide-Fc conjugates with mAb 198; assay type: binding, rat; conditions: Western blot FIG. 13
# Source text: (§4) A conjugate has been engineered (FIG. 12B) that fuses the chimeric Torpedo-human peptide (SEQ ID NO:27) to an antibody Fc domain.
# mAb 132A [10] = experiment: Western blot of peptide-Fc conjugates with mAb 132A; assay type: binding, rat; conditions: Western blot FIG. 13
# Source text: as §4
# [11] = Table 2, Western blot of FIG. 7, human 39MIR multiple mutants
# [12] = Table 3, single-substitution human 39MIR mutants
Substance,"mAb 334, fold-change in binding relative to Torpedo 39MIR (mAb 334) [fold-change]","mAb 132A, fold-change in binding relative to Torpedo 39MIR (mAb 132A [1]) [fold-change]","mAb 35, fold-change in binding relative to Torpedo 39MIR (mAb 35 [2]; [11]) [fold-change]","mAb 35, fold-change in binding relative to Torpedo 39MIR (mAb 35 [2]; [12]) [fold-change]","mAb 198, fold-change in binding relative to Torpedo 39MIR (mAb 198 [3]; Table 1, Western blot of FIG. 5, Torpedo 39MIR single mutants) [fold-change]","mAb 198, fold-change in binding relative to Torpedo 39MIR (mAb 198 [3]; [11]) [fold-change]","mAb 198, fold-change in binding relative to Torpedo 39MIR (mAb 198 [3]; [12]) [fold-change]","mAb 198 binding, result in words (mAb 198 [3]; Western blot)","mAb 198 binding to the Torpedo mimic versus the human MIR mimic (mAb 198 [3]; Western blot FIG. 3, more strongly than to the human MIR mimic)",binding to antibodies in human MG serum samples [4],pKd (mAb 132A [5]),adsorption of MIR directed Abs in EAMG sera that block the binding of biotinylated mAb 132A to the Torpedo AChR [6],"mAb 132A, fold-change in binding relative to Torpedo 39MIR (mAb 132A [7]; [11]) [fold-change]","mAb 132A, fold-change in binding relative to Torpedo 39MIR (mAb 132A [7]; [12]) [fold-change]","mAb 35, fold-change in binding relative to Torpedo 39MIR (mAb 35 [8]) [fold-change]",binding of mAb 198 to peptide-Fc conjugate (mAb 198 [9]),binding of mAb 132A to peptide-Fc conjugate (mAb 132A [10])
SEHETRLVANLLGGGSLRWNPADYGGIKKIRGSLDYTGK [Torpedo 39MIR],1.00,1.00,1.00,1.00,1.00,1.00,1.00,binds; also recorded: able to bind,about 50 times,did not bind any antibodies,9.68,able to adsorb all of the MIR directed Abs in EAMG sera,1.00,1.00,1.00,,
Torpedo peptide-Fc conjugate: Torpedo 39MIR peptide (SEQ ID NO:9) conjugated to a human IgG antibody Fc domain plus hinge (SEHETRLVANLLGGGSLRWNPADYGGIKKIRGSLDYTGK; also: conjugated to human IgG Fc with hinge),,,,,,,,,,,,,,,,did not bind,did not bind

# Source: US11422132B2, “Peptides and uses thereof for diagnosing and treating myasthenia gravis” (The Regents of the University of California, priority 2016, dated 2022)
